Calls of active or inactive are those of the source.
Tests used:
Type in all cases: functional
[1] = target: T1, Apoptotic protease-activating factor 1 (Homo sapiens, UniProt O14727)
T1 sequence (O14727 whole entry): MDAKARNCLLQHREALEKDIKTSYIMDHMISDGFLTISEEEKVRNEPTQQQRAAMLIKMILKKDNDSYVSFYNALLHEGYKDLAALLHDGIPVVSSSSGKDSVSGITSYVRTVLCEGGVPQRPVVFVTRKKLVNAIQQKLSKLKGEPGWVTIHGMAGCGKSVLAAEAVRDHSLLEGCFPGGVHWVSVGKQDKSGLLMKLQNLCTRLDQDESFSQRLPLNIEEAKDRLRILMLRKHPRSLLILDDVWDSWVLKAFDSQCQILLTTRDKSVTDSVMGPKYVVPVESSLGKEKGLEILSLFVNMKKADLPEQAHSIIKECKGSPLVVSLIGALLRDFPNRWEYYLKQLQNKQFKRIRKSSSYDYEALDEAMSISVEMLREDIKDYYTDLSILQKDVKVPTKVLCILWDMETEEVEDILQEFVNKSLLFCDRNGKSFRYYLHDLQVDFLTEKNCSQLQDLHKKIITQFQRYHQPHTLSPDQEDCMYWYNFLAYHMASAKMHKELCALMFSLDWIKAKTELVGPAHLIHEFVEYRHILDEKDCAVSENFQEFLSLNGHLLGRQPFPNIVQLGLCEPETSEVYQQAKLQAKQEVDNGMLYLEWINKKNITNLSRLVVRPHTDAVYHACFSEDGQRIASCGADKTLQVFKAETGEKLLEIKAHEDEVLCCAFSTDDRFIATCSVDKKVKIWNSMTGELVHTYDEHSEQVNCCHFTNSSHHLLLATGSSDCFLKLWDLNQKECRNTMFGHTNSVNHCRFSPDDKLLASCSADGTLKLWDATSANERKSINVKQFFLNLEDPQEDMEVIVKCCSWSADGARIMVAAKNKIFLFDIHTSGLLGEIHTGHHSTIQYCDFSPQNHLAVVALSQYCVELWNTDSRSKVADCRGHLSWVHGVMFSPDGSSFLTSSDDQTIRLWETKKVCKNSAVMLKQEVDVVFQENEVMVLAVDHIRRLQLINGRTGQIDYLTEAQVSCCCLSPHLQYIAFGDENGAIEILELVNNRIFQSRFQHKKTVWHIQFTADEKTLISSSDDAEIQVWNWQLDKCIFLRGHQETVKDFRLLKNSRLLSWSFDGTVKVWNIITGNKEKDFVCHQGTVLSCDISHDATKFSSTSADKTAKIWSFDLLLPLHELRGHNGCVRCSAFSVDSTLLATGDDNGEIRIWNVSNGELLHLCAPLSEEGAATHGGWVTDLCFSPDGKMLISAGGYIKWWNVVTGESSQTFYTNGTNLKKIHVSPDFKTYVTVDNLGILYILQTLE

[2] = target: T2, Sentrin-specific protease 8 (Homo sapiens, UniProt Q96LD8);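 further: luminescence read-out of SENP8 inhibition, dose-response confirmation following an ultra-high-throughput screen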
T2 sequence (Q96LD8 whole entry): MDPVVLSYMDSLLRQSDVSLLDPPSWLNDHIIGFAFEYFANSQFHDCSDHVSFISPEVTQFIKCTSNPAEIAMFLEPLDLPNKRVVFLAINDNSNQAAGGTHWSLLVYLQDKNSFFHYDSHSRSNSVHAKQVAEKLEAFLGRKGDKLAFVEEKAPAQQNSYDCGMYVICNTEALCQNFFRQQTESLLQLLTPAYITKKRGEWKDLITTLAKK

[3] = target: Serine/threonine-protein kinase pim-2 (Homo sapiens, UniProt Q9P1W9);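 further: value comes from a broad kinase panel profiling study in which PIM2 was one of the panel members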
Sequence of Serine/threonine-protein kinase pim-2 (Q9P1W9 whole entry): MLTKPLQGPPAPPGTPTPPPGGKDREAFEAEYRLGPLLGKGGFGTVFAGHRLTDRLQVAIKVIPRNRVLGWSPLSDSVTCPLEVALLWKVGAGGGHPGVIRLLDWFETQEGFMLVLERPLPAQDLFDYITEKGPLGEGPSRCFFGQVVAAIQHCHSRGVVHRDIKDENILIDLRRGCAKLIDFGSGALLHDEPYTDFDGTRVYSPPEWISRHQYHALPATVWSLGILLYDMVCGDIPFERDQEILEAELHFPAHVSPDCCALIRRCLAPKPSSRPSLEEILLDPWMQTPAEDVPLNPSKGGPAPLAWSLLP

[4] = target: Tyrosine-protein kinase JAK3 (Homo sapiens, UniProt P52333)
Sequence of Tyrosine-protein kinase JAK3 (P52333 whole entry): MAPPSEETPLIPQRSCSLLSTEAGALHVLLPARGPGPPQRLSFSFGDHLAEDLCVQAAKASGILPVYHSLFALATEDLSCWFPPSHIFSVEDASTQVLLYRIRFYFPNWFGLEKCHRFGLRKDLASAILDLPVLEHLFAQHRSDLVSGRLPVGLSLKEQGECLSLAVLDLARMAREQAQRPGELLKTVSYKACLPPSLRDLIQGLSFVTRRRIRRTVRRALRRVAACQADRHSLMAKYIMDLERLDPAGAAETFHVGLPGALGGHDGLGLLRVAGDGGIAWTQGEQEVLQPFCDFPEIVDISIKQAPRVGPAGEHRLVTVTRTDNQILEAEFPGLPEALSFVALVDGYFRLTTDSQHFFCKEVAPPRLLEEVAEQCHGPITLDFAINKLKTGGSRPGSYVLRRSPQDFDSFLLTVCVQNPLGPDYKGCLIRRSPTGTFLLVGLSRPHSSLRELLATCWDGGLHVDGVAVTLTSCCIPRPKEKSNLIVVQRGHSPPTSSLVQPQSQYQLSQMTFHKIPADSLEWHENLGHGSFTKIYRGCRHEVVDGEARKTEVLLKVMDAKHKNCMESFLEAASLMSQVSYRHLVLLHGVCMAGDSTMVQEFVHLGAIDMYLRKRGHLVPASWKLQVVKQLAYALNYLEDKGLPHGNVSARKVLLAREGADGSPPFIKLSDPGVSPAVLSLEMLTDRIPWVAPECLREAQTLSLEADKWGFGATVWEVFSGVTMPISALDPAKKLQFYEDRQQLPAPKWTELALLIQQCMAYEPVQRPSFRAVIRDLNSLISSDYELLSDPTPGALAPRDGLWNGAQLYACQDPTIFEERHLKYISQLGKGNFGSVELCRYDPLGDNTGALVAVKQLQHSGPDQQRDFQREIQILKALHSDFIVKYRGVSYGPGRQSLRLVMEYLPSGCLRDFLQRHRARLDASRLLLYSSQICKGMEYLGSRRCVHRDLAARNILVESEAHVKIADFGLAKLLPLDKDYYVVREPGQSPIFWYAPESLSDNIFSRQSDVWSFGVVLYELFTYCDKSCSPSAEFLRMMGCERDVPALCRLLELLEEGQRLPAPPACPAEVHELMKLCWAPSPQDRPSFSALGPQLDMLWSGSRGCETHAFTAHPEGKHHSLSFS

[5] = target: Mitogen-activated protein kinase 1 (Homo sapiens, UniProt P28482)
[6] = target: Fibroblast growth factor receptor 1 (Homo sapiens, UniProt P11362)
[7] = target: Serine/threonine-protein kinase PLK3 (Homo sapiens, UniProt Q9H4B4)
[8] = target: Vascular endothelial growth factor receptor 3 (Homo sapiens, UniProt P35916);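 further: value from a kinome-wide profiling panel, with FLT4 as the panel member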
Sequence of Vascular endothelial growth factor receptor 3 (P35916 whole entry): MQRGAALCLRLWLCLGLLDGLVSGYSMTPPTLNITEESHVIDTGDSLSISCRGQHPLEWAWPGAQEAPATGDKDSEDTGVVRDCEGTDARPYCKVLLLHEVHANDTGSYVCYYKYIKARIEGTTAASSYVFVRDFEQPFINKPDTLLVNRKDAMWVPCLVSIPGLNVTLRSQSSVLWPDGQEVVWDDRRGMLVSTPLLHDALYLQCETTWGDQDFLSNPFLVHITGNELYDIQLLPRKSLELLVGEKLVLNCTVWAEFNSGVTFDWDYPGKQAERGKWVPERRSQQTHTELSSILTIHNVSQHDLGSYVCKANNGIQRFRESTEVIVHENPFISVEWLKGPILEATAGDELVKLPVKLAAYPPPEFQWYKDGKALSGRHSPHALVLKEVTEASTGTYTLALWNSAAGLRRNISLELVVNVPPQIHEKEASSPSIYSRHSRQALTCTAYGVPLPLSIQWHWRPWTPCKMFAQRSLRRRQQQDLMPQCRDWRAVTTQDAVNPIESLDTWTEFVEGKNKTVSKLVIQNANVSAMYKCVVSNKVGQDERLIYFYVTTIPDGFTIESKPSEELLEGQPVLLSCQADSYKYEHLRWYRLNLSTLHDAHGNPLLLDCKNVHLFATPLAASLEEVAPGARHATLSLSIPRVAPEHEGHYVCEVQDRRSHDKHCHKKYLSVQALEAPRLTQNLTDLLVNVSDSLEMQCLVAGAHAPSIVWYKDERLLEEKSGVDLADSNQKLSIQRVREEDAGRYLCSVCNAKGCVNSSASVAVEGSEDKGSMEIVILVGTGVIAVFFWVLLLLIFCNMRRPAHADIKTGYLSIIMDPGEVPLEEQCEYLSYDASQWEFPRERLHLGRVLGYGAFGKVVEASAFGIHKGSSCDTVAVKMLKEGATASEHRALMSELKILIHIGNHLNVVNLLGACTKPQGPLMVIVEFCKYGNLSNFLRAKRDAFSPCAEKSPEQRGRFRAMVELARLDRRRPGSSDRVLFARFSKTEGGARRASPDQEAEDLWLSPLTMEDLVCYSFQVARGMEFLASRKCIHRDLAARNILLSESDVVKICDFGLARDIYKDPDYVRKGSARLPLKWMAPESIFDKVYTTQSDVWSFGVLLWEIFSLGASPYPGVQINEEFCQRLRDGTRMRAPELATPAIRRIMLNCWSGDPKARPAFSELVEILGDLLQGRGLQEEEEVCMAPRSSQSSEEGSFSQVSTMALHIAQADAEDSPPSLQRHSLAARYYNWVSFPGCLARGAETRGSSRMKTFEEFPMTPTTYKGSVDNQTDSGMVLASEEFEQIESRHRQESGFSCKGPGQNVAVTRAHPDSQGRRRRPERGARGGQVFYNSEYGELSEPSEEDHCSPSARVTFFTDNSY

[9] = target: Tyrosine-protein kinase Lck (Homo sapiens, UniProt P06239);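 further: lck was assayed as one member of a kinase panel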
[10] = target: Protein kinase C gamma type (Homo sapiens, UniProt P05129)
[11] = target: Death-associated protein kinase 3 (Homo sapiens, UniProt O43293);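 further: measured as one member of a kinome-wide profiling panel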
Sequence of Death-associated protein kinase 3 (O43293 whole entry): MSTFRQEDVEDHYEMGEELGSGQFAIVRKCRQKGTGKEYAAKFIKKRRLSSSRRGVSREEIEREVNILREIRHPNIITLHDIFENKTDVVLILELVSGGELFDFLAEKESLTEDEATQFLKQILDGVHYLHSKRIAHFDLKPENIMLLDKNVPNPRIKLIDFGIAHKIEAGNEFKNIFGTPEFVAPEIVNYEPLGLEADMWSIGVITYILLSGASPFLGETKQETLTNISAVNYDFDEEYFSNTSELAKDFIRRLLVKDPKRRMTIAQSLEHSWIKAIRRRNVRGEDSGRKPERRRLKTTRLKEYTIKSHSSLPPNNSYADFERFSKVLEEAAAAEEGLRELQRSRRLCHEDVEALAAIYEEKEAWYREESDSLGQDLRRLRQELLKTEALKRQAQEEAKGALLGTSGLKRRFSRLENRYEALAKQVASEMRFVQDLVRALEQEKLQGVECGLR

[12] = target: Serine/threonine-protein kinase PAK 4 (Homo sapiens, UniProt O96013);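 further: value obtained within a kinome profiling panel in which PAK4 was one of the panel members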
Sequence of Serine/threonine-protein kinase PAK 4 (O96013 whole entry): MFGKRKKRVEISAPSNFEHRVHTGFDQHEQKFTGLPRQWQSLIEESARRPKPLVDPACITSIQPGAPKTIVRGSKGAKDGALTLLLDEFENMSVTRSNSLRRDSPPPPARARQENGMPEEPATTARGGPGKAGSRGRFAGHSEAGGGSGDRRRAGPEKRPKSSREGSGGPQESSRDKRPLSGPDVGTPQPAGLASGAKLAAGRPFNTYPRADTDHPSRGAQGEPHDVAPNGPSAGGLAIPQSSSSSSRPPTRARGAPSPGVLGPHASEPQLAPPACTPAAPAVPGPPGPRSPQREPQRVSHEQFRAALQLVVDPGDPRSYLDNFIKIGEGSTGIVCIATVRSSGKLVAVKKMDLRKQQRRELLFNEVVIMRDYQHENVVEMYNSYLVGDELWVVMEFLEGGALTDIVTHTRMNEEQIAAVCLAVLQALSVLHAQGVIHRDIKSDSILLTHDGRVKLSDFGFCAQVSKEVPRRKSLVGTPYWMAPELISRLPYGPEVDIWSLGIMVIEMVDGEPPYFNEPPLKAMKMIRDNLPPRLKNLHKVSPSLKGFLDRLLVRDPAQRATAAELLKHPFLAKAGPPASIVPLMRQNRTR

[13] = target: Tyrosine-protein kinase JAK2 (Homo sapiens, UniProt O60674);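 further: JAK2 tested as one member of a kinase panel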
[14] = target: Interleukin-1 receptor-associated kinase 4 (Homo sapiens, UniProt Q9NWZ3)
[15] = target: Fibroblast growth factor receptor 3 (Homo sapiens, UniProt P22607)
[16] = target: Serine/threonine-protein kinase PLK4 (Homo sapiens, UniProt O00444);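 further: PLK4 measured as one member of a kinome-wide kinase profiling panel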
Sequence of Serine/threonine-protein kinase PLK4 (O00444 whole entry): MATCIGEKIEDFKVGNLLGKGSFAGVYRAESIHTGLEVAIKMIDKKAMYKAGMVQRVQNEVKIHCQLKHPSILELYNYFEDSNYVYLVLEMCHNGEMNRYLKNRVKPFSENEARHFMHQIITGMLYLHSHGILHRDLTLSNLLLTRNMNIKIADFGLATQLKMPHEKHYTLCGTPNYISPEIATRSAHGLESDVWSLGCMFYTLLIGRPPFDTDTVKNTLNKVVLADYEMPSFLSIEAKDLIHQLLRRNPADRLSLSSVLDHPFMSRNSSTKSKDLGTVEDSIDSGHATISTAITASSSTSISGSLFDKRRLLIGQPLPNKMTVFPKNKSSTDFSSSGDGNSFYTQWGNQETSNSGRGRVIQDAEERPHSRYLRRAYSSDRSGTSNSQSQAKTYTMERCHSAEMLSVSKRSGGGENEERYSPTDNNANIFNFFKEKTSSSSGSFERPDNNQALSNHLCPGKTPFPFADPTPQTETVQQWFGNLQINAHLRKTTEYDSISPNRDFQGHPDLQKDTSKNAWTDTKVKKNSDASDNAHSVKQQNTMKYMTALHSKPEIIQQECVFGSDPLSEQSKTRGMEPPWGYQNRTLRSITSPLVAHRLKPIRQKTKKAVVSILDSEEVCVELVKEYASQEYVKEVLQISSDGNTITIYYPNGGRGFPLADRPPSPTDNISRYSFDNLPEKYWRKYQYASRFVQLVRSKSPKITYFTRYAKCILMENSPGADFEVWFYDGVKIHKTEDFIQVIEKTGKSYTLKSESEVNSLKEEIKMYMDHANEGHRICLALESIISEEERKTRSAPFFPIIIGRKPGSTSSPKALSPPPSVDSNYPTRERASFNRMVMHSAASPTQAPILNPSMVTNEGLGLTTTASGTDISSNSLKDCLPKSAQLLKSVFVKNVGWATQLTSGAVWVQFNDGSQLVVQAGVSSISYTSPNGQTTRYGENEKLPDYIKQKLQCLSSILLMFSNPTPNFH

Aurora kinase B = Aurora kinase B (Homo sapiens, UniProt Q96GD4)
BJ [17] = assay: cytotoxicity toward BJ-TERT fibroblasts, dose response, cell-based, RAS-independent, luminescence (AID 1933); details: Homo sapiens
[18] = target: T3, Ubiquitin-conjugating enzyme E2 N (Homo sapiens, UniProt P61088)
T3 sequence (P61088 whole entry): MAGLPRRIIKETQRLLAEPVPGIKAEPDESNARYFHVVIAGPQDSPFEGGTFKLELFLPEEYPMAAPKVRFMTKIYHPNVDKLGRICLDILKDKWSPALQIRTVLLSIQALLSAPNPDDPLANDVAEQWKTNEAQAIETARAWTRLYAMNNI

BJ [19] = assay: cytotoxicity toward Ras-transformed BJeLR fibroblasts, dose response, cell-based, alamar blue fluorescence, cherrypicked samples (AID 2631); details: Homo sapiens;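 further: confirmatory dose-response assay in RAS-dependent BJ fibroblasts engineered with TERT, LT and ST, with cytotoxicity read by fluorescence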

| Ki [3] | Ki [4] | Ki [5] | Ki [6] | Ki [7] | Ki [8] | Ki [9] | Ki [10] | Ki [12] | Ki [13] | Ki [14] | Ki [15] | Ki [16] | Ki (Aurora kinase B) | Compound | IC50 [1] | IC50 [2] | Ki [11] | EC50 (BJ [17]) | IC50 [18] | EC50 (BJ [19]) |
| --- | --- | --- | --- | --- | --- | --- | --- | --- | --- | --- | --- | --- | --- | --- | --- | --- | --- | --- | --- | --- |
| – | – | – | – | – | – | – | – | – | – | – | – | – | – | CCC(C)NC(=O)c1c(N)n(CCCOC)c2nc3ccccc3nc12 (stereo unspecified) | 25900 nM (active) | 2060 nM (active) | – | – | – | – |
| 200 nM (active) | 1000 nM (active) | > 7940 nM (inactive) | > 5010 nM (inactive) | 6310 nM (active) | > 6310 nM (inactive) | > 2510 nM (inactive) | 631 nM (active) | 2510 nM (active) | 1000 nM (active) | 1580 nM (active) | > 2000 nM (inactive) | > 3980 nM (inactive) | 1260 nM (active) | CC(=NNC(=N)N)c1cc(NC(=O)NCCCCCCNC(=O)Nc2cc(C(C)=NNC(=N)N)cc(C(C)=NNC(=N)N)c2)cc(C(C)=NNC(=N)N)c1 | – | – | 158 nM (active) | – | – | – |
| – | – | – | – | – | – | – | – | – | – | – | – | – | – | Cc1cc(N)c2cc(NC(=O)/C=C/c3ccccc3Cl)ccc2n1 | 9950 nM (active) | – | – | 2620 nM (inconclusive) | 3000 nM (active) | 704 nM (inconclusive) |

Source: ChEMBL document CHEMBL1201862, “PubChem BioAssay data set” (2004)
